Laboratory results reported in patent publication US11820994B2, “Methods of inducing apomictic or sexual reproduction” (priority 2018, dated 2023).

How the values were obtained:
[1] = tested on: Arabidopsis ovules; assay: Pistil culture experiments with 5-azaC, BR (epiBL), DTBA, H2O2 and sugars, meiosis to apomeiosis; format: cell-based, Arabidopsis thaliana
From the text: (§1) To address redox instability, pistils were exposed to the antioxidant DTBA, an antioxidant that protects thiol groups in proteins from oxidization. To address bioenergetic stress, pistils were exposed to sugars. Glucose signaling is one of the most ancient and central signaling pathways in animals and plants and is involved in gene expression, primary and secondary metabolism, and regulation of growth and development (98). In Arabidopsis, rates of glycolysis and mitochondrial bioenergetics are sensed by TOR, which then control root meristem activation (18). If sufficient sugar is supplied, TOR should be activated. Active TOR protects BZR1 and other important BR-regulated enzymes from degradation, and this leads to plant growth (25). Factorial experiments were designed to test the effects of sucrose, glucose, epiBL, DTBA and 5-azaC on apomixis induction. These were designed for each of three sexual species, B. stricta, arabidopsis and cowpea. The experiments were performed and ratios of apomeiosis to meiosis were documented.
Two factorial experiments were conducted using immature arabidopsis pistils. In the first experiment, no 5-azaC, 5-azaC in the pretreatment only, or 5-azaC in both the pretreatment and the tissue culture medium were tested.
Cytological Analyses. Arabidopsis, Drummond's rockcress and cowpea floral buds were fixed in FAA (v/v: 3.7% formaldehyde, 5% acetic acid, 50% ethanol) for 48 h and cleared in 2:1 benzyl benzoate dibutyl phthalate (BBDP) (80): 1) 70% EtOH, 30 min; 95% EtOH, ≥4 h (2×); 95% EtOH:BBDP (2:1), 2 h; 95% EtOH:BBDP (1:2), 4 h; BBDP, 4 h; BBDP, overnight. Cleared pistils were mounted (up to 16 per slide) and measured from the pedicel base to the top of the stigma. Ovule development stages were studied using a BX53 microscope equipped with differential interference contrast optics and a MicroFire 599809 camera (Olympus, Center Valley, Pa., USA). For chromosome staining, pistils were soaked in 95% ethanol that contained 0.1 mg L^−1 4′,6-diamidino-2-phenylindole (DAPI). Callose was stained by soaking DAPI stained pistils in aqueous aniline blue (Millipore Sigma, Darmstadt, Germany) (124). DAPI fluorescence was detected with a Zeiss LSM 510 confocal microscope with excitation at 408 nm, dichroic reflector at HFT488 nm and detection at 450-650 nm. Callose was distinguished from DAPI by detection at 550-650 nm.
Presence of the following ovule characteristics were recorded: MMCs, Antennaria type diplosporous 1-2 nucleate ES, sexual or Taraxacum type diplosporous dyads, sexual tetrads, sexual or Taraxacum type diplosporous 1-2 nucleate ES, AI and AES. Developmental stages for the majority of ovules per pistil were recorded, and pistil lengths for the following stages (125) were recorded: 1-II, ovule meristems protruding from placentae (precedes MMC formation); 2-IV, meiosis; 3-III, vacuole in immature ES beginning to appear; 4-VI, nuclear divisions in endosperm underway. To determine average timing of meiosis onset, pistils primarily containing premeiotic (2-III) ovules were located under low light conditions 1 h before the lights came on in the morning. Corresponding sepals were marked with a small point permanent marker. Pistils were then randomly harvested for analysis when the lights came on and 3 h thereafter.
Pistils were aseptically excised, but not disinfested, at the early pre-MMC to MMC stages and incubated in vitro. The basal culture medium for arabidopsis and Drummond's rockcress was MS (126) (Caisson Laboratories, Inc., Smithfield, UT USA) with 20 g L^−1 sucrose or glucose and solidified with 1.45 g L^−1 Phytogel (MilliporeSigma).

[2] = tested on: cowpea (Vigna unguiculata) ovules; assay: Pistil culture with epiBL, DTBA, epiBL plus DTBA and 5-azaC; format: cell-based; conditions: compound in pretreatment and culture medium; 24 of 34 ovules in total
From the text: as §1, with “These were designed for each of three sexual species, B. stricta, arabidopsis and cowpea. The experiments were performed and ratios of apomeiosis to meiosis were documented.” left out
Cytological Analyses. […] Cleared pistils were mounted (up to 16 per slide) and measured from the pedicel base to the top of the stigma. […] DAPI fluorescence was detected with a Zeiss LSM 510 confocal microscope with excitation at 408 nm, dichroic reflector at HFT488 nm and detection at 450-650 nm. […]
Presence of the following ovule characteristics were recorded: MMCs, Antennaria type diplosporous 1-2 nucleate ES, sexual or Taraxacum type diplosporous dyads, sexual tetrads, sexual or Taraxacum type diplosporous 1-2 nucleate ES, AI and AES. […]

[3] = tested on: B. stricta (Drummond's rockcress) ovules; assay: Pistil culture factorial experiment with sucrose, glucose, epiBL, DTBA and 5-azaC; format: cell-based, Boechera stricta
From the text: as §1
Both the carbohydrate variable and the other components variable were highly significant (P<0.001). Additionally, three ovules from the sucrose plus epiBL treatment (epiBL in the pretreatment and in the medium) had formed aposporous embryo sacs (AES). Also, two ovules, one from the sucrose-epiBL-epiBL treatment and one from the glucose-DTBA-DTBA treatment, had formed Antennaria-type diplosporous embryo sacs (FIGS. 48A-48H).
Cytological Analyses. Arabidopsis, Drummond's rockcress and cowpea floral buds were fixed in FAA (v/v: 3.7% formaldehyde, 5% acetic acid, 50% ethanol) for 48 h and cleared in 2:1 benzyl benzoate dibutyl phthalate (BBDP) (80): 1) 70% EtOH, 30 min; 95% EtOH, ≥4 h (2×); 95% EtOH:BBDP (2:1), 2 h; 95% EtOH:BBDP (1:2), 4 h; BBDP, 4 h; BBDP, overnight. Cleared pistils were mounted (up to 16 per slide) and measured from the pedicel base to the top of the stigma. […] DAPI fluorescence was detected with a Zeiss LSM 510 confocal microscope with excitation at 408 nm, dichroic reflector at HFT488 nm and detection at 450-650 nm. […]
Presence of the following ovule characteristics were recorded: MMCs, Antennaria type diplosporous 1-2 nucleate ES, sexual or Taraxacum type diplosporous dyads, sexual tetrads, sexual or Taraxacum type diplosporous 1-2 nucleate ES, AI and AES. Developmental stages for the majority of ovules per pistil were recorded, and pistil lengths for the following stages (125) were recorded: 1-II, ovule meristems protruding from placentae (precedes MMC formation); 2-IV, meiosis; 3-III, vacuole in immature ES beginning to appear; 4-VI, nuclear divisions in endosperm underway. […]

[4] = tested on: Arabidopsis embryo sacs; assay: Induction of parthenogenesis and autonomous endosperm formation in pistils; format: cell-based; conditions: 0.1 μM DTBA on 2% glucose medium for 7 d
Method: Scale bars: 50 μm (FIG. 51A), 20 μm (FIGS. 51B-51E).
FIG. 52 Parthenogenesis in putatively diploid Arabidopsis embryo sacs induced by treatment of pistils in emasculated flowers with 2 μM BR or 50 mM glucose. To prevent fertilization, stigmas of pistils were clipped while anthers were immature. These pistils were also treated premeiotically with BR and glucose.
Functional apomixis requires not only apomeiosis but also parthenogenesis and, in plants, endosperm formation.

[5] = tested on: apomictic Boechera pistils; conditions: H2O2 applications shortly before apomeiosis; cited from earlier work
[6] = tested on: B. cf. gunnisoniana ovules; assay: Pistil culture with BR biosynthesis inhibitor BRZ, H2O2, or both; format: cell-based; conditions: for shift from apomeiosis (dyad formation) to meiosis (tetrad formation) vs controls: BRZ alone (1.0 μmol), H2O2 alone (500 μmol), or combined
Method: Pistils were cultured at the 2-IV stage.
Pistils were cultured at the […].
By a mechanism not yet elucidated (25), TOR stimulates the production of brassinosteroids (BR), which are plant steroids that regulate growth, including many growth and development functions of ovules (25). By dephosphorylation, BR activates BRASSINAZOLE-RESISTANT 1 (BZR1), which is a major BR-regulated transcription factor that targets ca. 2000 genes. Thus, to determine if BR functions downstream of TOR in the apomeiosis meiosis switch, we treated sets of B. cf. gunnisoniana pistils with the BR biosynthesis inhibitor brassinozole (BRZ). Pistils were collected during the 2-III and 2-IV stages.
To determine if apomixis to sex switching by H2O2 involves pathways independent of BR, we compared three treatments to controls, BRZ alone (1.0 μmol), H2O2 alone (500 μmol), and BRZ and H2O2 combined (FIG. 37).

[7] = tested on: B. retrofracta×stricta ovules; conditions: 50 and/or 100 mmol L−1 H2O2, 5 min pretreatment of pistils
From the text: (§2) Ovules were scored based on germline development. The following conditions were quantified: i) pre-meiotic megaspore mother cell (MMC), ii) meiotic or diplosporous dyad, iii) sexual tetrad of megaspores, iv) enlarged functional megaspore (FM) with three degenerating megaspores (sexually derived), v) early-stage 1 or 2-nucleate embryo sac with three degenerating megaspore remnants visible, vi) enlarged functional megaspore (FM) with only one degenerating megaspore (derived by Taraxacum-type diplospory), vii) early-stage 1 or 2-nucleate embryo sac with only one degenerating megaspore remnant (derived by Taraxacum-type diplospory), viii) early-stage 1 or 2-nucleate embryo sac with no degenerating megaspores present (derived by Antennaria-type diplospory), ix) presence of one or more enlarged non-vacuolate nucellar cells (aposporous initial, AI) that equal or surpass the size of the meiocyte (meiotically active MMC, dyad or early-stage tetrad), x) enlarged nucellar cell with one or more distinct vacuoles and 1-2 nuclei (early-stage aposporous embryo sac, AES). Because of increased uncertainties, the origins of embryo sacs (sexual, diplosporous or aposporous) were not reported beyond the 2-nucleate stage. Pistil length and the developmental stage of the majority of scorable ovules in the pistil were recorded for each pistil.
(§3) To study the effects of short-term drought on converting apomictic development to sexual development, pistils of apomictic B. retrofracta×stricta, B. cf. gunnisoniana and B. lignifera were excised and cultured at pre-apomeiotic stages of ovule development.
(§4) TARGET OF RAPAMYCIN (TOR) is a major regulator of cell energetics that is highly-conserved among eukaryotes. This serine/threonine protein kinase activates or inactivates enzymes by its serine-threonine phosphorylation function(18). As a regulator of bioenergetics, TOR is inactivated by ROS, and its inactivation suppresses growth.

[8] = tested on: B. lignifera ovules; conditions: 50 and/or 100 mmol L−1 H2O2, 5 min pretreatment of pistils
From the text: as §2, §3, §4

[9] = tested on: B. cf. gunnisoniana ovules
From the text: as §2, §3, §4

[10] = tested on: B. cf. gunnisoniana ovules; conditions: pre-MMC staged pistils demethylated with 5-azaC; cited from earlier work
[11] = tested on: B. cf. gunnisoniana ovules; assay: 5-azaC pre-culture soak and pistil culture, Taraxacum-type to Antennaria-type diplospory; format: cell-based; conditions: 500 μmol L−1 5-azaC (highest concentration)
Method: FIG. 38 Frequencies of triploid B. cf. gunnisoniana ovules that were initiating Taraxacum-type diplospory, Polygonum-type sexual development, Antennaria-type diplospory, or Hieracium-type apospory at the end of pistil culture treatment as affected by a 5 min pre-culture soak in solutions containing 5-azacytidine (5-azaC). Pistils were initiated in culture at the 1-I stage. Numbers of ovules per level of 5-azaC averaged 487 and ranged from 288-590.
FIGS. 39A-39C Ovules from pistils of B. gunnisoniana treated at the pre-MMC stage with 5-azaC as a pretreatment solution and then cultured on 5-azaC-containing tissue culture media for 48 h. (FIGS. 39A, 39B) Antennaria-type (A-type) MMC vacuolation. (FIG. 39C) 2-nucleate A-type embryo sac arising directly from an MMC. scale bar: 20 μm.
Thus, if methylation in sexual plants can be prevented, or if DNA can be demethylated, the apomictic pathway might surface as the default pathway. 5-azaC, an inhibitor of DNA-cytosine methyltransferases, produces upon DNA replication hypomethylated DNA. It is a chemical analogue of cytosine that is incorporated into DNA by competition with cytosine during DNA synthesis. In 5-azaC, the carbon-5 of the cytosine ring, which is essential to DNA methyltransferase function, is replaced by nitrogen, and this causes failure of methylation at each 5-azaC site(99). […]

[12] = early MMC staged pistils soaked in DTBA 60 min, cultured on DTBA medium 4 d
[13] = 7 min pretreatment in dilute H2O2

Structure (SMILES): Cl.N[C@H](CS)CCS [DTBA, (S)-2-aminobutane-1,4-dithiol hydrochloride]
- ovules with 1st division meiotic restitution (Taraxacum-type diplosporous apomeiosis) [1, 12]: 40%
- ovules with megaspores displaced by one or more AES [1, 12]: 18%
- number of ovules that initiated Antennaria-type diplospory [2]: 8 ovules
- number of ovules that formed Antennaria-type diplosporous embryo sacs ([3]; glucose-DTBA-DTBA treatment): one
- parthenogenetic embryo formation [4]: Parthenogenetic embryos

Structure (SMILES): OO [H2O2, hydrogen peroxide]
- Taraxacum-type diplosporous ES formation [1, 13]: absent
- ovules with surviving megaspores replaced by AES [1, 13]: 13%
- shift from apomeiosis to meiosis [5]: high frequency shifts from Taraxacum-type diplosporous apomeiosis to normal meiosis
- shift from apomeiosis (dyad formation) to meiosis (tetrad formation) vs controls [6]: highly significant (p<0.001) shift from apomeiosis (dyad formation) to meiosis (tetrad formation)
- switch from apomeiosis to meiosis [7]: effectively switched apomeiosis to meiosis
- switch from apomeiosis to meiosis [8]: effectively switched apomeiosis to meiosis
- switch from apomeiosis to meiosis ([9]; 50 and/or 100 mmol L−1 H2O2, 5 min pretreatment of pistils): effectively switched apomeiosis to meiosis
- replacement of surviving megaspores of tetrads by aposporous embryo sacs (apospory), ovules ([9]; H2O2 treatments): 30%

Structure (SMILES): Nc1ncn([C@@H]2O[C@H](CO)[C@@H](O)[C@H]2O)c(=O)n1 [5-azaC, 5-azacytidine]
- ovules switched from Taraxacum-type to Antennaria-type diplospory [10]: 10%
- Antennaria type diplospory ([1]; 5-azaC soak, then 5-azaC or BR medium (5/5, 5/B)): occurred in some ovules
- ovules with meiosis replaced by Antennaria-type diplosporous embryo sac formation ([1]; first factorial experiment, 5-azaC in pretreatment and tissue culture media): 6%
- onset of aposporous embryo sac formation ([1]; first factorial experiment, 5-azaC in pretreatment only or pretreatment and medium): effectively induced onset of aposporous embryo sac formation from nucellar cells
- treated ovules that developed apomeiotically ([1]; pre-MMC pistils soaked in 5-azaC 60 min, cultured on control medium or media with 5-azaC, BR, or 5-azaC plus BR and DTBA): Greater than 90%
- ovules with Antennaria-type diplospory ([1]; second factorial experiment, 5-azaC as pretreatment and in culture medium): 26%
- ovules that initiated apomixis (AES, Taraxacum-type and Antennaria-type diplospory) ([1]; second factorial experiment, 5-azaC-treated): 90%
- number of ovules that initiated Antennaria-type diplospory [2]: Nine
- ovules with induced Antennaria-type diplospory [11]: 10%

Structure (SMILES): CC(O)(c1ccccc1)C(Cc1ccc(Cl)cc1)n1cncn1 (stereo not shown) [BRZ, brassinazole]
- shift from apomeiosis (dyad formation) to meiosis (tetrad formation) vs controls [6]: highly significant (p<0.001) shift from apomeiosis (dyad formation) to meiosis (tetrad formation)
- shift of reproductive mode by BR synthesis inhibition ([6]; pistils cultured at the 2-IV stage): significant shift (P<0.05) from apomeiosis to meiosis and from apoptosis to apospory

Structure (SMILES): OC[C@H]1O[C@@](CO)(O[C@H]2O[C@H](CO)[C@@H](O)[C@H](O)[C@H]2O)[C@@H](O)[C@@H]1O [sucrose]
- meiosis termination followed by Taraxacum and Hieracium type ES formation ([3]; glucose instead of sucrose in medium): 26 of 164
